Reference: the NIST ThermoML archive (doi:10.1016/j.jct.2006.09.008)

Test: molar heat capacity at constant pressure; mn = molality of the nth substance listed, in mol/kg
Conditions: 350 kPa, Liquid

O=[N+]([O-])[O-].O=[N+]([O-])[O-].[Mn+2] [manganese nitrate] + O
molar heat capacity at constant pressure [J/K/mol]
Conditions	m1 = 0.0132	m1 = 0.0248	m1 = 0.0503	m1 = 0.0825	m1 = 0.0836	m1 = 0.1542	m1 = 0.3085	m1 = 0.5132
278.15 K	75.63	75.56	75.42	75.25	75.25	74.9	74.27	73.62
283.15 K	75.47	75.41	75.28	75.14	75.13	74.83	74.27	73.71
288.15 K	75.36	75.31	75.19	75.07	75.06	74.79	74.3	73.8
293.15 K	75.29	75.24	75.14	75.02	75.02	74.78	74.34	73.88
298.15 K	75.24	75.2	75.1	75	75	74.78	74.38	73.96
303.15 K	75.21	75.17	75.08	74.99	74.99	74.78	74.42	74.04
308.15 K	75.2	75.16	75.08	74.99	74.99	74.8	74.46	74.11
313.15 K	75.2	75.16	75.09	75.01	75	74.83	74.51	74.18
318.15 K	75.21	75.18	75.11	75.03	75.03	74.86	74.56	74.25
323.15 K	75.24	75.2	75.14	75.06	75.06	74.89	74.61	74.32
328.15 K	75.27	75.24	75.17	75.1	75.09	74.94	74.66	74.39
333.15 K	75.31	75.28	75.21	75.14	75.14	74.99	74.72	74.45
338.15 K	75.36	75.33	75.26	75.19	75.19	75.04	74.78	74.52
343.15 K	75.42	75.39	75.32	75.25	75.25	75.1	74.84	74.59
348.15 K	75.48	75.45	75.38	75.31	75.31	75.16	74.91	74.66
353.15 K	75.55	75.52	75.46	75.38	75.38	75.23	74.98	74.73
358.15 K	75.63	75.6	75.53	75.46	75.46	75.31	75.06	74.81
363.15 K	75.72	75.68	75.62	75.54	75.54	75.39	75.14	74.89
368.15 K	75.81	75.78	75.71	75.63	75.63	75.48	75.22	74.97
373.15 K	75.91	75.88	75.81	75.73	75.73	75.57	75.31	75.06
378.15 K	76.02	75.99	75.91	75.83	75.83	75.67	75.41	75.15
383.15 K	76.14	76.1	76.03	75.94	75.94	75.78	75.51	75.25
388.15 K	76.27	76.23	76.15	76.07	76.07	75.89	75.62	75.36
393.15 K	76.41	76.37	76.29	76.2	76.2	76.02	75.74	75.47
